“Also recorded” adds a separate entry of the source.
What was measured:
human OCT2 = biological target: T1, human OCT2 (Homo sapiens, UniProt O15244); experiment: Inhibition of ASP+ uptake in HEK293 cells overexpressing OCT2; format: cell-based; conditions: ASP+ 10 μM
T1 construct: expressed in transfected cells; gift of Dr. Kathy Giacomini, UCSF
T1 sequence (O15244 1-555): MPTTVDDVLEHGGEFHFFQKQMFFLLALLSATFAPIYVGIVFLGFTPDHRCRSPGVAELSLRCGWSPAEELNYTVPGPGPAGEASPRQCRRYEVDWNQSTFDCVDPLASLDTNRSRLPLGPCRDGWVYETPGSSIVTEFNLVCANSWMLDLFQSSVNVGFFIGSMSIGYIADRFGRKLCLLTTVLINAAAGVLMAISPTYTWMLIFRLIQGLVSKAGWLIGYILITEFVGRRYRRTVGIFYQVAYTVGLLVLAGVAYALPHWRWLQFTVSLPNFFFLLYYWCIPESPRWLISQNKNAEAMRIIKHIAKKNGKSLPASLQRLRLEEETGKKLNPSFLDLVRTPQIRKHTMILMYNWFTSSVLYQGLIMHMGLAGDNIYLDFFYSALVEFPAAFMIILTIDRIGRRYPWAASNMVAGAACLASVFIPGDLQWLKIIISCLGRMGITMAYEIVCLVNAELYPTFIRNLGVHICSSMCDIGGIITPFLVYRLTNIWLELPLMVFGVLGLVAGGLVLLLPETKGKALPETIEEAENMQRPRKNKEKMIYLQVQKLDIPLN
Protocol: (§1) After washing once with prewarmed Hank’s Buffered Saline Solution (HBSS), cells were preincubated for 30 min at 37 °C with various 5-HT3 antagonists for OCT2 cells or in a 30 mM NH4Cl solution in HBSS at pH 6.5 for MATE1 cells for intracellular acidification. Uptake into OCT2 cells was initiated through exposure to 10 μM of fluorescent substrate ASP^+ directly in the incubation media. Uptake into MATE1 cells was initiated by application of HBSS at pH 7.4 containing 5-HT3 antagonists and 10 μM of fluorescent substrate ASP^+. […] Media was removed and washed four times with ice-cold HBSS. Cells were lysed with 1% Triton X-100. […] Intracellular fluorescence was normalized to total protein concentration of cell lysates from each well using the bicinchoninic acid (BCA) assay (Pierce Biotechnology, Rockford, IL, USA). Experiments were repeated three separate times, with three to four replicates in each experiment.
(§2) GraphPad Prism v6 (GraphPad Software, La Jolla, CA, USA) was used for statistical analysis.

MATE1 = biological target: T2, MATE1 (Homo sapiens, UniProt Q96FL8); experiment: Inhibition of ASP+ uptake in HEK293 cells overexpressing MATE1; format: cell-based; conditions: inhibitor 10 μM, HEK293-MATE1 (data not shown)
T2 construct: expressed in transfected cells; gift of Dr. Kathy Giacomini, UCSF
T2 sequence (Q96FL8 1-570): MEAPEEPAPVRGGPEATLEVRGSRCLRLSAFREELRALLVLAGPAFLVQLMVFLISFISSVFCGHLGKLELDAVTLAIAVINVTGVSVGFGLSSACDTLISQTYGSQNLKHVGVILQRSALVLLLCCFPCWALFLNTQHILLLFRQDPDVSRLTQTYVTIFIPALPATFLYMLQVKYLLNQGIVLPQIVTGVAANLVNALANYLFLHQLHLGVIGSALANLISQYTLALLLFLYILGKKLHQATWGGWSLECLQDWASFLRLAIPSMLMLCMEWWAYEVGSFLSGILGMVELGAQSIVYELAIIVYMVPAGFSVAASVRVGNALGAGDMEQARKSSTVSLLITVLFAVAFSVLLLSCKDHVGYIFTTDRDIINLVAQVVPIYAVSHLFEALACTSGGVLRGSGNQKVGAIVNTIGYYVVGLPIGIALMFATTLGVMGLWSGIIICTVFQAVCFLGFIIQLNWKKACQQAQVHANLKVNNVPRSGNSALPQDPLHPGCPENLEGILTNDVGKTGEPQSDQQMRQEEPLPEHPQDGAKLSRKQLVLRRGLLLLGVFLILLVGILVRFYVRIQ
Protocol: as §1, §2

human OCT2 and MATE1 [1] = experiment: Intracellular accumulation of ASP+ in OCT2/MATE1 double-transfected MDCK cells; format: cell-based; conditions: 120 min
Protocol: (§3) Cells were incubated with 5-HT3 antagonists in the apical chamber in HBSS pH 6.0 and 5-HT3 antagonists with ASP^+ (25 μM) in the basolateral chamber in HBSS pH 7.4 and incubated at 37 °C for 120 min. To measure time-dependent transcellular transport, an aliquot of the incubation medium (100 μL) from the apical chamber (receiving chamber) was collected at 40, 60, 90, and 120 min and replaced with an equal volume of fresh buffer containing 5-HT3 antagonist or the positive control chemical at the original concentration. […] Cells were lysed with 1% Triton X-100. […] Experiments were performed in three individual Transwell inserts.

[2] = tested on: vector control MDCK cells; experiment: Intracellular accumulation of ASP+ in vector control MDCK cells; format: cell-based, canine; conditions: 120 min
Protocol: as §3

OCT2 and MATE1 = experiment: Inhibition of basolateral-to-apical transcellular transport of ASP+ in OCT2/MATE1 double-transfected MDCK cells (Transwell); conditions: human, probe ASP+ (25 μM, basolateral chamber)
Protocol: (§4) Control and OCT2/MATE1-expressing MDCK cells were evaluated for protein expression of OCT2 and MATE1 using SDS-PAGE and western blotting with specific primary antibodies (OCT2, sc292622 1:500 and MATE1, sc133390 1:250, Santa Cruz Biotechnology, Santa Cruz, CA, USA), followed by an antirabbit HRP-conjugated secondary antibody (1:1000, Sigma Aldrich, St. Louis, MO, USA) and Super Signal Western Dura Extended Duration Substrate (Pierce Biotechnology, Rockford, IL, USA). Detection was performed with a FluorChem imager (ProteinSimple, Santa Clara, CA, USA). Both MDCK cell lines were seeded on 0.4 μm transwell inserts (VWR, Radnor, PA, USA) at a density of 2 × 10^5 cells/cm^2. Transport experiments were performed 3 to 5 days after seeding. The integrity of MDCK monolayers was verified by measuring transepithelial electrical resistance (TEER) >150 Ω*cm^2 using an epithelial voltohmmeter, EVOM^2 (World Precision Instruments, Sarasota, FL). Proper formation of tight junctions was also verified by measurement of passive permeability of lucifer yellow in the basolateral-to-apical (B-to-A) direction. Lucifer yellow (20 μM) was applied to the basolateral chamber for 1 h, and media were collected from the apical chamber.
(§5) After washing the cells once with Hank’s Buffered Saline Solution (HBSS) pH 7.4, transport studies were initiated after aspirating the wash buffer from both the apical and basal chambers. […] Cells were lysed with 1% Triton X-100. […] Intracellular fluorescence was normalized to total protein concentration of cell lysates from each transwell using the BCA assay. Experiments were performed in three individual Transwell inserts.

human OCT2 and MATE1 [3] = experiment: as above; conditions: inhibitor 0.5–20 μM
Protocol: as §4, §5

[4] = no reference given, cited from earlier work
[5] = substrate: CN(C)c1ccc(/C=C/c2cc[n+](C)cc2)cc1; experiment: Concentration-dependent uptake of ASP+ in OCT2-expressing HEK293 cells; format: cell-based, human; conditions: other: OCT2-expressing HEK293, 0–100 μM, 1 min; 37.0 °C
Protocol: Figure 2 Time and Concentration-Dependent Accumulation of ASP^+ in HEK293 Cells Overexpressing OCT2 or MATE1. HEK cells expressing empty vector (EV), OCT2, or MATE1 were incubated for different time periods (0.5–20 min, 10 μM ASP^+, 37 °C) to evaluate time-dependent uptake (A) or with increasing concentrations of ASP^+ (0–100 μM, 1 min 37 °C) for concentration-dependent uptake (B) on a shaker. Specific transport uptake is shown in dashed lines. Intracellular fluorescence was quantified and normalized to protein concentration. Data are presented as mean ± SE (n = 3).
OCT2- and MATE1-overexpressing HEK293 cells were seeded in clear poly-^D-lysine-coated 24-well plates (Fisher Scientific, Hanover Park, IL, USA) and grown for 24 h until approximately 90% confluent. […]
GraphPad Prism v6 (GraphPad Software, La Jolla, CA, USA) was used for statistical analysis. Km and Vmax were calculated using nonlinear regression (Michaelis–Menten enzyme kinetics equation, (Y = Vmax × X/(Km + X), fit for least squares). Data with two variables were analyzed using a two-way ANOVA followed by a one-way ANOVA and/or Dunnett’s post-hoc test for multiple comparisons. IC50 values were calculated via a nonlinear regression to fit least squares. Differences were considered statistically significant at p < 0.05.

Cc1cc2c(s1)Nc1ccccc1N=C2N1CCN(C)CC1 [olanzapine]
effect on ASP+ uptake in OCT2-expressing HEK293 cells (human OCT2): inhibited OCT2 activity across a range of concentrations
inhibition of MATE1 activity (MATE1): None of these drugs inhibited MATE1 activity
decrease in intracellular accumulation of ASP+ (human OCT2 and MATE1 [1]; inhibitor 20 μM): 51%
effect on intracellular accumulation of ASP+ in control cells ([2]; cimetidine 5 and 50 μM, pyrimethamine 1 μM, olanzapine 20 μM): modest decrease in ASP^+ accumulation

Cc1nccn1CC1CCc2c(c3ccccc3n2C)C1=O (centres unmarked) [Ondansetron]
inhibition at 120 min, 20 μM (OCT2 and MATE1): 36%
inhibition of basolateral-to-apical transcellular transport of ASP+, up to (human OCT2 and MATE1 [3]): up to 64%
effect on B-to-A transport of ASP+ (human OCT2 and MATE1 [3]; 40–120 min, ASP+ 25 μM): inhibited the B-to-A transport of ASP^+ in a concentration-dependent manner; also recorded: inhibited the basolateral-to-apical ASP^+ secretion at all concentrations tested
increase in intracellular ASP+ accumulation (human OCT2 and MATE1 [1]; inhibitor 0.5 and 2.5 μM): 1.3 fold
effect on intracellular ASP+ accumulation (human OCT2 and MATE1 [1]; inhibitor 0.5–20 μM, ASP+ 25 μM): at concentrations of 0.5 and 2.5 μM caused significant intracellular accumulation of ASP^+; also recorded: no difference compared to vehicle at higher concentrations (10 and 20 μM)
decrease in accumulation of ASP+ in control cells ([2]; high concentrations of inhibitor): 40%
half-life [4]: < 6 h
metabolized by cytochrome P450 enzymes in the liver ([4]; range for the named drugs together): 48–95%

B1: human OCT2 (Homo sapiens) (protein)
chain: MPTTVDDVLEHGGEFHFFQKQMFFLLALLSATFAPIYVGIVFLGFTPDHRCRSPGVAELSLRCGWSPAEELNYTVPGPGPAGEASPRQCRRYEVDWNQSTFDCVDPLASLDTNRSRLPLGPCRDGWVYETPGSSIVTEFNLVCANSWMLDLFQSSVNVGFFIGSMSIGYIADRFGRKLCLLTTVLINAAAGVLMAISPTYTWMLIFRLIQGLVSKAGWLIGYILITEFVGRRYRRTVGIFYQVAYTVGLLVLAGVAYALPHWRWLQFTVSLPNFFFLLYYWCIPESPRWLISQNKNAEAMRIIKHIAKKNGKSLPASLQRLRLEEETGKKLNPSFLDLVRTPQIRKHTMILMYNWFTSSVLYQGLIMHMGLAGDNIYLDFFYSALVEFPAAFMIILTIDRIGRRYPWAASNMVAGAACLASVFIPGDLQWLKIIISCLGRMGITMAYEIVCLVNAELYPTFIRNLGVHICSSMCDIGGIITPFLVYRLTNIWLELPLMVFGVLGLVAGGLVLLLPETKGKALPETIEEAENMQRPRKNKEKMIYLQVQKLDIPLN
notes: expressed in transfected cells; gift of Dr. Kathy Giacomini, UCSF
Km [5]: 2.9 µM
Vmax [5]: 8.1 nmol/mg/min

Reference: article PMC8234231, “In Vitro Inhibition of Renal OCT2 and MATE1 Secretion by Antiemetic Drugs” (International Journal of Molecular Sciences, 2021)
